The record followed here is patent publication US6767890B1, “Peptides having anti-cancer and anti-inflammatory activity” (priority 1998, dated 2004).

Experiment [1] has as its system croton oil-induced ear inflammation. Briefly: Mouse-ear edema model (croton oil). It is filed as in vivo. Particulars: 20 λ of 5% peptide in carbopol topically 30 min after 10% croton oil, ear biopsy weight at 24 hrs. From the text:
Mouse-ear edema model. Croton-oil, which contains a variety of phorbol esters, and arachidonic acid (AA) are standard inducers of inflammation in mouse ears when applied topically. Phorbol esters, especially phorbol myristyl acetate (PMA), activate one or more isozymes of the ubiquitous membrane receptor, protein kinase C (PKC), which in turn initiates several metabolic cascades leading to inflammation. As is a substrate for one of these cascades, leading to prostaglandin and leukotriene production, both of which are inflammatory. Inhibition of such inflammation by a putative bioactive agent is considered a generalized indicator of potential pharmacologic activity.
Male Swiss Webster mice (15-20 g) were purchased from B&K Universal, Kent, Wash. and maintained in the laboratory for one day prior to entering the experiment. At t=0, the ventral side of both ears of each mouse was challenged topically with 10 λ of 10% croton oil in acetone. […] The animals were sacrificed by cervical dislocation at t=24 hrs, the ears removed, and a biopsy take from each ear with an 8 mm punch. The biopsy was immediately weighed on a 4-place balance.

For experiment [2], the system named is galanin receptor. Briefly: Galanin Agonism/Antagonism, rat ileum. It is filed as cell-based. Particulars: Peptide 30 μM. As to the method: For in vivo assay, distilled water and saline was used as vehicle in oral and intraperitoneal administration, respectively. Dosing volume was 20 ml/kg for mice or 10 ml/kg for rats.
A segment of ileum obtained from Wistar derived male or female rats weighing 275±25 gms and sacrificed by CO2 overexposure was used. The tissue was placed under 1 g tension in a 10 ml bath containing Kreb's solution pH 7.4 at 32° C. Test substance (30 μM)-induced contraction 50 percent or more (≧50%) within 5 minutes, relative to control 0.1 μM galanin response, indicated possible galanin receptor agonist activity. Atha test substance concentration where no significant agonist activity was seen, ability to reduce the galanin-induced contractile response […] or more (≧50%) indicated galanin receptor antagonist activity. Each concentration was tested on two separate preparations.

The target in experiment [3] is T1, histamine H3 receptor (Cavia porcellus, UniProt Q9JI35).
T1 construct: ileum obtained from Duncan Hartley derived male or female guinea pigs; from tissue; host or cells: guinea pig ileum segment, field-stimulated
Description: Histamine H3 Agonism/Antagonism, guinea pig ileum. It is filed as cell-based. Particulars: Peptide 30 μM, Thioperamide 0.3 μM. As to the method:
A segment of ileum obtained from Duncan Hartley derived male or female guinea pigs weighing 325±25 gms and sacrificed by CO2 overexposure were used. The tissue was placed under 0.5 g tension in a 10 ml bath containing Kreb's solution pH 7.4 and pyrilamine (0.3 μM) at 32° C. and subjected to field stimulation (70% of maximum voltage, 0.1 Hz, 0.5 millisecond). Test substance (30 μM)-induced reduction of isometrically recorded contractions 50 percent or more (≧50%) within 5 minutes, relative to control 0.3 μM R-α-methylhistamine response, indicated possible histamine H3 receptor agonist activity. At a test substance concentration where no significant agonist activity was seen, ability to inhibit R-α-methylhistamine-induced response by 50 percent or more (≧50%) indicated histamine H3 receptor antagonist activity. Each concentration was tested on two separate preparations.

Experiment [4] has as its target T2, Collagenase IV (Homo sapiens, UniProt P14780).
T2 construct: human U937; endogenous in cells; host or cells: U937 cells
Description: Collagenase IV enzyme assay. Conditions: 100.0 μM; average of duplicate; negative = stimulation. It is filed as biochemical. As to the method:
(§1) The peptide was further screened in vitro in a variety of enzyme and biochemical assays. Methods employed were adapted from the scientific literature to maximize reliability and reproducibility. The primary literature reference for each assay is listed in Table 11 opposite the results for each assay.
(§2) Results presented in Table 10, “Results,” are the average of duplicate determinations, unless otherwise noted.
Reference compounds were tested concurrently at 5 concentrations as an integral part of each assay to ensure the validity of the results obtained.
(§3) Enzyme assays were performed under conditions described in Table 8, “Experimental Conditions.”. The commercial suppliers and catalog numbers of substrates employed in this study are given in Table 7, “Material Sources.” The name, commercial source, and catalog numbers of concurrent reference compounds (controls) employed in this study are given in Table 9, “Reference Compound Data.” The reaction catalyzed by each enzyme is listed in Table 8, “Experimental Conditions.”
(§4) Biochemical assay results are presented in Table 10, as the percent inhibition of specific binding or activity, and unless noted are the average of duplicate tubes tested at each concentration.

Experiment [5] addresses T3, Cyclooxygenase-2 (Ovis aries, UniProt P79208).
T3 construct: sheep placenta; from tissue; host or cells: sheep placenta
Briefly: Cyclooxygenase-2 enzyme assay. It is filed as biochemical, sheep. Particulars: 300.0 μM; average of duplicate; negative = stimulation. As to the method: The peptide was further screened in vitro in a variety of enzyme and biochemical assays. Methods employed were adapted from the scientific literature to maximize reliability and reproducibility.
Unless otherwise indicated, the peptide was tested in duplicate at the concentrations indicated for each assay. Results presented in Table 10, “Results,” are the average of duplicate determinations, unless otherwise noted.
as §3, §4

For experiment [6], the target named is T4, Interleukin-6 (Homo sapiens, UniProt P08887).
T4 construct: human U266; endogenous in cells; host or cells: U266 cells
Briefly: Interleukin-6 radioligand binding. Particulars: 10.0 μM; specific binding of [125I]Interleukin-6; negative = stimulation. As to the method:
as §1, §2
Reference compounds were tested concurrently at 5 concentrations as an integral part of each assay to ensure the validity of the results obtained. […]
Maximum total binding and nonspecific binding were determined each time each assay was run. […]
Where inhibition constants (Ki) are presented, the Ki values were calculated using the equation of Cheng and Prusoff (Cheng, Y., Prusoff, W. H., Biochem. Pharmacol. […], 1973) using the observed IC50 of the tested compound, the concentration of radioligand employed in the assay, and the historical values for the Kd of the ligand (obtained experimentally). Where presented, the Hill Coefficient (nH), defining the scope of the competitive binding curve, was calculated using GraphPad Prism. […] Where IC50, Ki, and/or Hill Slope data is presented without Standard Error of the Mean (SEM), data are insufficient to be quantitative, and the values presented (Ki, IC50, nH) should be interpreted with caution. […]

Several values for one entry are separate records, joined by “and”; a condition that tells them apart may be missing. Equal values may be shown once.

T1 sequence (Q9JI35 whole entry): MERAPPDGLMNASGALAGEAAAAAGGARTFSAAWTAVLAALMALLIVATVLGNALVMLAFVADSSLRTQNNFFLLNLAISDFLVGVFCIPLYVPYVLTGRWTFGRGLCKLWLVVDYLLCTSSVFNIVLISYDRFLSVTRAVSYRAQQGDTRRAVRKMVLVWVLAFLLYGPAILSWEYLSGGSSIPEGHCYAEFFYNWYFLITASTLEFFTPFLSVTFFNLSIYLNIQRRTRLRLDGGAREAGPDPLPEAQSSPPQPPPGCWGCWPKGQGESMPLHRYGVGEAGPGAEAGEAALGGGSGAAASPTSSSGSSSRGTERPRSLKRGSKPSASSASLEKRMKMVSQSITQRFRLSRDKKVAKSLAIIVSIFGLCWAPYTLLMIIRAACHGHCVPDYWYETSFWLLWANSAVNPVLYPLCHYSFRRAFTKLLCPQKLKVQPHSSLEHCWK
T2 sequence (P14780 94-707): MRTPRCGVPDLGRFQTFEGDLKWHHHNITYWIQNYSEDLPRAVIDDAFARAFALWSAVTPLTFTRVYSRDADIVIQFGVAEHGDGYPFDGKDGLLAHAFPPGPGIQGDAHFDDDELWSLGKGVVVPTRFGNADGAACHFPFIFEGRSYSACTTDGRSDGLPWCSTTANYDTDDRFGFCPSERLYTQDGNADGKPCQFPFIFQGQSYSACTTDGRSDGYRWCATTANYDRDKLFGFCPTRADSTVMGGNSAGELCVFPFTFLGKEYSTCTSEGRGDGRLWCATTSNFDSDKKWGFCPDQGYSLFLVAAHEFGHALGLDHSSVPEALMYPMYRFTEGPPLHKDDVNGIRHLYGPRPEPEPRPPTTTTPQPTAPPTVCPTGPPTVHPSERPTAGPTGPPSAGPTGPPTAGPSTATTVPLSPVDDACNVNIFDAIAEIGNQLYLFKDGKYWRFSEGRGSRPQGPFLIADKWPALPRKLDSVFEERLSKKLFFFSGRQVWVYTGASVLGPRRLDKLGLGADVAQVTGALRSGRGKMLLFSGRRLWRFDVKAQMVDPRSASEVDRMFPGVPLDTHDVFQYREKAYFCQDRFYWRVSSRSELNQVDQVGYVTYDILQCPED
T4 sequence (P08887 20-468): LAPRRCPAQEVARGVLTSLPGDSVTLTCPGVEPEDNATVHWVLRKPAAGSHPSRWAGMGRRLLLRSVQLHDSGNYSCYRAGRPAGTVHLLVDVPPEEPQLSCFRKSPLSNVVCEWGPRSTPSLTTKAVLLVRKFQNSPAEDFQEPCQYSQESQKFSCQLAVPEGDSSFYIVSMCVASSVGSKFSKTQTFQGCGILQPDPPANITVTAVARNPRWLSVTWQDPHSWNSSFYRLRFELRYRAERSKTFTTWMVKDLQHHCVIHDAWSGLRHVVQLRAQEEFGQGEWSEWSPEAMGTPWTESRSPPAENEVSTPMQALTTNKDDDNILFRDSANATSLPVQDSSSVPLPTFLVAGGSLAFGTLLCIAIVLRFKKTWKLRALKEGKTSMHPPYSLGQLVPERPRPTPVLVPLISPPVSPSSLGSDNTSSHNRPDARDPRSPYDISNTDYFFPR
T3 sequence (P79208 17-603): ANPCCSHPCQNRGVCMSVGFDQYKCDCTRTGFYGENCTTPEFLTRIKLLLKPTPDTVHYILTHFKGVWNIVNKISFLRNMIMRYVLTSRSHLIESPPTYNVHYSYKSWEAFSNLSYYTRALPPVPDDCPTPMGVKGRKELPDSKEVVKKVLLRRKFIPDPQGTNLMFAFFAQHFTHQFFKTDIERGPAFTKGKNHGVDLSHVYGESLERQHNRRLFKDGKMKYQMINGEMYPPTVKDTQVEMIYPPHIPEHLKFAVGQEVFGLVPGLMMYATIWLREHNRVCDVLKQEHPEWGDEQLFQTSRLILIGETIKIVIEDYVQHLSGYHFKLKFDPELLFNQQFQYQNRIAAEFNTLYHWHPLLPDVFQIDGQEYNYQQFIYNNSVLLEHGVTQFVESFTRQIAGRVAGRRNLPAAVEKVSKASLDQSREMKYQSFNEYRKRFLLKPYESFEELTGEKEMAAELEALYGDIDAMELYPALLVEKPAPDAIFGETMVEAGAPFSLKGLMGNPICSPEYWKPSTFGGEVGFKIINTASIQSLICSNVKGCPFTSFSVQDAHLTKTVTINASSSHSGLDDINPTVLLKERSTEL

As for LEU-PRO-PRO-SER-ARG [Peptide], the “reduction in swelling compared to vehicle-only treated ears” value in experiment [1] came to 61%. In addition, the “Antagonism, Ave.” value stood at 12% in experiment [2] (average of two preparations) and 4% in experiment [3] (average of two preparations). The “Agonism, Ave.” value in experiment [2] (average of two preparations, Galanin 0.1 μM) is given as 0%; in experiment [3] (average of two preparations, R(α)-Methylhistamine 0.3 μM) it was 4%. Besides, the Agonism in experiment [2] (individual preparation, contraction within 5 minutes relative to 0.1 μM galanin response, Galanin 0.1 μM) is 0%; in experiment [3] (individual preparation, relaxation within 5 minutes relative to 0.3 μM R-α-methylhistamine, R(α)-Methylhistamine 0.3 μM (0.1 printed in r13)) it was 0% and 4%. In addition, the Antagonism is 24% and 0% in experiment [2] (individual preparation, reduction of 0.1 μM galanin-induced contractile response); 7% and 0% in experiment [3] (individual preparation, reduction of 0.3 μM R(α)-methylhistamine-induced relaxation). For the same substance, the % Inhibition – broadly, the relative decrease from the control value, in per cent – in experiment [4] is reported as 2%; in experiment [5], 2%; in experiment [6] it was 13%.
